From ChEMBL document CHEMBL1201862, “PubChem BioAssay data set” (2004)
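1) Cells in 96-well plates. 2) Compound, 48 h, 5 concentrations. 3) Linear interpolation between surrounding doses. 4) Unreached endpoint = highest concentration. Abbreviation: GI50, concentration required for 50% inhibition of growth.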 Active and inactive are the calls of the source. Rule as the data show it: active = GI50 up to about 1.1 µM and inactive = higher. Non-standard residues stand in square brackets, D forms with d. Residues, ends and D or L forms follow the SMILES beside them. ξ: configuration not given here. *: point of attachment. NMeY = CN[C@@H](Cc1ccc(O)cc1)C(=O)O; Cbz = O=C(OCc1ccccc1)*; ξA = CC(N)C(=O)O

Experiments:
Assay in all cases: growth of human tumour cells (NCI), 48 h
Hs-578T = test system: Hs-578T
NCI-H522 = test system: NCI-H522
Malme-3M = test system: Malme-3M
RPMI-8226 = test system: RPMI-8226
HL-60 = test system: HL-60
MDA-N = test system: MDA-N
EKVX = test system: EKVX
SF-268 = test system: SF-268
NCI-H23 = test system: NCI-H23
OVCAR-3 = test system: OVCAR-3
T47D = test system: T47D
KM12 = test system: KM12
SK-OV-3 = test system: SK-OV-3
UACC-62 = test system: UACC-62
M14 = test system: M14
ACHN = test system: ACHN
SW-620 = test system: SW-620
SR = test system: SR
A498 = test system: A498
UO-31 = test system: UO-31

Measured: GI50

COc1ccc(C[C@@H](C(=O)NCC(N)=O)N(C)C(=O)[C@@H]2CCCN2C(=O)[C@H](CC(C)C)NC(=O)C(C)NC(=O)OCc2ccccc2)cc1 (stereo not given in full) (Cbz-[ξA]LP[NMeY](Me)G-NH2)
inactive: Hs-578T > 100 µM | NCI-H522 > 100 µM | Malme-3M > 100 µM | RPMI-8226 > 100 µM | HL-60 > 100 µM | MDA-N > 100 µM | EKVX > 100 µM | SF-268 > 100 µM | NCI-H23 > 100 µM | OVCAR-3 > 100 µM | T47D > 100 µM | KM12 > 100 µM | SK-OV-3 > 100 µM | UACC-62 > 100 µM | M14 > 100 µM | ACHN > 100 µM | SW-620 > 100 µM | SR > 100 µM | A498 > 100 µM | UO-31 > 100 µM

Cc1nc(N)nc(N)c1-c1ccc(Cl)c(Cl)c1 [METOPRINE]
active: NCI-H522 0.785 µM | HL-60 0.13 µM | MDA-N 0.141 µM | SF-268 1 µM | NCI-H23 0.378 µM | UACC-62 0.355 µM | M14 0.162 µM | ACHN 0.495 µM | SW-620 0.144 µM | SR 0.308 µM
inactive: Hs-578T 4.72 µM | Malme-3M 2.91 µM | RPMI-8226 6.28 µM | EKVX 4.47 µM | OVCAR-3 3.75 µM | T47D 16.9 µM | KM12 3.05 µM | SK-OV-3 3.48 µM | A498 21.6 µM | UO-31 1.15 µM

C/C(CC(O)(C(F)(F)F)C(F)(F)F)=N\NC(N)=S
inactive: Hs-578T > 10 µM | NCI-H522 > 10 µM | Malme-3M > 10 µM | RPMI-8226 > 10 µM | HL-60 > 10 µM | MDA-N > 10 µM | EKVX > 10 µM | SF-268 > 10 µM | NCI-H23 > 10 µM | OVCAR-3 > 10 µM | T47D > 10 µM | KM12 > 10 µM | SK-OV-3 > 10 µM | UACC-62 > 10 µM | M14 > 10 µM | ACHN > 10 µM | SW-620 > 10 µM | SR > 10 µM | A498 > 10 µM | UO-31 > 10 µM

O=c1[nH]c2nc[nH]c2c(=O)n1C1CCCCC1
inactive: Hs-578T > 100 µM | NCI-H522 > 100 µM | Malme-3M > 100 µM | RPMI-8226 > 100 µM | HL-60 6.01 µM | MDA-N > 100 µM | EKVX > 100 µM | SF-268 > 100 µM | NCI-H23 > 100 µM | OVCAR-3 > 100 µM | T47D > 100 µM | KM12 > 100 µM | SK-OV-3 > 100 µM | UACC-62 > 100 µM | M14 > 100 µM | ACHN > 100 µM | SW-620 > 100 µM | SR > 100 µM | A498 > 100 µM | UO-31 > 100 µM

C=C(C(=O)O[C@H]1C(=O)C2=C(C)CCC3C(=C)C(=O)O[C@@H]3C2[C@]1(C)O)C1CC[C@]2(C)CCCC(=C)[C@H]2C1 (stereo not given in full)
inactive: Hs-578T 4.61 µM | NCI-H522 3.53 µM | Malme-3M 8.83 µM | RPMI-8226 3.46 µM | HL-60 2 µM | MDA-N 2.71 µM | EKVX 7.98 µM | SF-268 5.6 µM | NCI-H23 7.35 µM | OVCAR-3 4.75 µM | T47D 4.25 µM | KM12 6.85 µM | SK-OV-3 16.9 µM | UACC-62 1.9 µM | M14 7.62 µM | ACHN 4.58 µM | SW-620 7.46 µM | SR 7.4 µM | A498 10.7 µM | UO-31 6.34 µM

CN(C)CCCn1cnc2cc(Cl)c(Cl)cc21
inactive: Hs-578T > 100 µM | NCI-H522 > 100 µM | Malme-3M > 100 µM | RPMI-8226 38.4 µM | HL-60 > 100 µM | MDA-N 34.1 µM | EKVX > 100 µM | SF-268 > 100 µM | NCI-H23 > 100 µM | OVCAR-3 > 100 µM | T47D 59.7 µM | KM12 > 100 µM | SK-OV-3 > 100 µM | UACC-62 27.7 µM | M14 16.6 µM | ACHN > 100 µM | SW-620 > 100 µM | SR 93.5 µM | A498 > 100 µM | UO-31 70 µM

OCCSCc1ccccc1
inactive: Hs-578T > 100 µM | NCI-H522 > 100 µM | Malme-3M > 100 µM | RPMI-8226 > 100 µM | HL-60 > 100 µM | MDA-N > 100 µM | EKVX > 100 µM | SF-268 > 100 µM | NCI-H23 > 100 µM | OVCAR-3 > 100 µM | T47D > 100 µM | KM12 > 100 µM | SK-OV-3 > 100 µM | UACC-62 > 100 µM | M14 > 100 µM | ACHN > 100 µM | SW-620 > 100 µM | SR > 100 µM | A498 > 100 µM | UO-31 > 100 µM

O=c1ssc2c1Nc1c(ssc1=O)S2
inactive: Hs-578T 33.7 µM | NCI-H522 8.28 µM | Malme-3M 5.9 µM | RPMI-8226 5.04 µM | HL-60 4.48 µM | MDA-N 16.1 µM | EKVX 15.4 µM | SF-268 16.2 µM | NCI-H23 18.7 µM | OVCAR-3 17.4 µM | T47D 10.7 µM | KM12 14.4 µM | SK-OV-3 19.5 µM | UACC-62 14 µM | M14 11.7 µM | ACHN 16.6 µM | SW-620 8.61 µM | SR 1.96 µM | A498 11.9 µM | UO-31 11.4 µM

COCOC1/C=C/CCCCC(=O)C(C)C#CC1 (stereo not given)
inactive: Hs-578T 20.3 µM | NCI-H522 1.53 µM | Malme-3M 1.98 µM | RPMI-8226 1.46 µM | HL-60 1.71 µM | MDA-N 11.5 µM | EKVX 9.86 µM | SF-268 15.1 µM | NCI-H23 4.63 µM | OVCAR-3 4.13 µM | T47D 2.76 µM | KM12 7.4 µM | SK-OV-3 15.8 µM | UACC-62 2.4 µM | M14 3.72 µM | ACHN 6.67 µM | SW-620 1.89 µM | SR 2.74 µM | A498 10.7 µM | UO-31 5.7 µM

CCOC(=O)NC(OCCN(C)C)(C(F)(F)F)C(F)(F)F
inactive: Hs-578T > 100 µM | NCI-H522 > 100 µM | Malme-3M > 100 µM | RPMI-8226 > 100 µM | HL-60 > 100 µM | MDA-N > 100 µM | EKVX > 100 µM | SF-268 > 100 µM | NCI-H23 > 100 µM | OVCAR-3 > 100 µM | T47D > 100 µM | KM12 > 100 µM | SK-OV-3 > 100 µM | UACC-62 > 100 µM | M14 > 100 µM | ACHN > 100 µM | SW-620 > 100 µM | SR > 100 µM | A498 > 100 µM | UO-31 > 100 µM

O=C1C[C@@H](c2ccccc2)NCCCCN(O)CCCN1
inactive: Hs-578T > 100 µM | NCI-H522 > 100 µM | Malme-3M > 100 µM | RPMI-8226 22.3 µM | HL-60 > 100 µM | MDA-N > 100 µM | EKVX > 100 µM | SF-268 > 100 µM | NCI-H23 > 100 µM | OVCAR-3 > 100 µM | T47D > 100 µM | KM12 > 100 µM | SK-OV-3 > 100 µM | UACC-62 > 100 µM | M14 > 100 µM | ACHN > 100 µM | SW-620 > 100 µM | SR > 10 µM | A498 > 100 µM | UO-31 > 100 µM

COc1ccc(/C(=N/O)c2ccccc2-c2nc3ccccc3c(=O)n2-c2ccc(S(=O)(=O)Nc3ncccn3)cc2)cc1C
inactive: Hs-578T 29.4 µM | NCI-H522 14.2 µM | Malme-3M > 10 µM | RPMI-8226 14.6 µM | HL-60 11.8 µM | MDA-N 18.3 µM | EKVX 16.5 µM | SF-268 16.7 µM | NCI-H23 12 µM | OVCAR-3 15.8 µM | T47D 12.6 µM | KM12 18.1 µM | SK-OV-3 6.81 µM | UACC-62 12.1 µM | M14 17.1 µM | ACHN 14.4 µM | SW-620 18 µM | SR 15.3 µM | A498 20.4 µM | UO-31 19.6 µM
